# Assay results taken from patent publication US20210352900A1, “Method for Controlling PPO Resistant Weeds” (BASF SE, priority 2016, published 2021).
# System: Amaranthus tuberculatus (AMATU, tall waterhemp), PPO resistant biotype 2 containing the ΔG210 mutation (w.3)
# Format: in vivo
# Conditions: azafenidin: in comparison to sensitive biotypes
row,Compound,"activity on / control of resistant weeds containing the ΔG210 mutation (w.3), in words"
1,"CCc1ccc(COc2ccc(-n3c(=O)cc(C(F)(F)F)n(C)c3=O)cc2)c(OC(C)C(=O)OC)c1 (centres unmarked) [(I).1, benzfendizone]",very good activity
2,"C#CCOc1cc(-n2nc3n(c2=O)CCCC3)c(Cl)cc1Cl [azafenidin, reference compound]",much weaker control
